The values below come from US8980335B2, “Use of organic acids and essential oils in animal feeding” (DSM IP Assets B.V., priority 2007, dated 2015).

Where only a bound is given, the exact number is not on record here.

For one data set, the system named is broiler chickens. The experiment in a line: Growth performance trial with broiler chickens (day 8 to day 29). The conditions noted are these: for Feed conversion (g feed/g gain) / Feed conversion relative to control (control 100.0) / Feed intake (g/bird) / Feed intake relative to control (control 100.0) / Weight gain (g/bird) / Weight gain relative to control (control 100.0): Day 8-29. In kind it is in vivo, chickens (ROSS PM3). The method, then:
A growth performance trial with broiler chickens was performed from day 8 to day 29. The chickens were housed in wire-floored battery cages. From day-old until day 8, the chickens were fed a pre-experimental diet based on wheat, maize and soybean meal. In the experimental period (day 8 to 29) the chickens received diets based on wheat, rye and soybean meal (composition see Table 1). Groups of birds were weighed on days 8, 15, 22 and 29. The feed consumption for the intermediate periods was determined and body weight gain and feed conversion ratio were calculated.
Beside an un-supplemented control treatment and a positive control containing 10 mg of the antibiotic Avilamycin per kg feed, benzoic acid (VevoVitall) was included at 500 mg per kg feed. In addition, per kg feed, combinations of 250 mg benzoic acid and 50 mg of the composition comprising thymol, eugenol and piperine (herein abbreviated by TEP) as well as either 500 mg benzoic acid and 25 mg TEP or 500 mg benzoic acid and 50 mg TEP were tested, respectively.

For a further data set, the system named is poultry. Conditions: cited from earlier work.
A further data set relates to pig. Conditions: cited from earlier work.

As to `COC[C@H]1O[C@@H](OC2OC[C@@H]3O[C@]4(O[C@H]3[C@H]2OC(=O)C(C)C)O[C@H](C)[C@@](O)(C(C)=O)[C@@H]2OCO[C@H]24)[C@@H](OC)[C@@H](O)[C@@H]1O[C@@H]1O[C@H](C)[C@H](OC)[C@H](O[C@H]2C[C@@]3(C)OC4(C[C@@H](O)[C@H](O[C@H]5C[C@@H](O)[C@H](OC(=O)c6c(C)c(Cl)c(O)c(Cl)c6OC)[C@@H](C)O5)[C@@H](C)O4)O[C@@H]3[C@@H](C)O2)[C@H]1O` (some centres unmarked) [Avilamycin], in the data set with broiler chickens (Avilamycin 10 mg per kg feed), the “Improvement in weight gain compared to the control” value worked out at 8.7% and the “Improvement of feed conversion (FCR) compared to the negative control” value was 4.3%. In addition, in the data set on broiler chickens (dose 10 mg/kg feed), the “Feed conversion (g feed/g gain)” value was found to be 2.008 ± 0.052 g feed/g gain, the “Feed conversion relative to control (control 100.0)” value came out at 95.7, the “Feed intake (g/bird)” value came to 2533 ± 199.6 g/bird and the “Feed intake relative to control (control 100.0)” value came out at 104.1. In the data set on broiler chickens (dose 10 mg/kg feed), the “Weight gain (g/bird)” value was found to be 1261 ± 76.8 g/bird and the “Weight gain relative to control (control 100.0)” value is reported as 108.7.
As for `O=C(O)c1ccccc1` [VevoVitall, benzoic acid], the “Dosage in feed at which undesired adverse effects occur” value with poultry is reported as greater than 5000 mg/kg poultry feed. Moreover, the “Dosage in feed at which undesired adverse effects occur” value with pig is given as greater than 10000 mg/kg pig feed. In addition, in the data set on broiler chickens (dose 500 mg/kg feed), the “Feed conversion (g feed/g gain)” value was 2.117 ± 0.093 g feed/g gain, the “Feed conversion relative to control (control 100.0)” value came out at 100.8, the “Feed intake (g/bird)” value was 2538 ± 309.6 g/bird and the “Feed intake relative to control (control 100.0)” value worked out at 104.3. In the data set with broiler chickens (dose 500 mg/kg feed), the “Weight gain (g/bird)” value came out at 1196 ± 103.0 g/bird and the “Weight gain relative to control (control 100.0)” value stood at 103.1. For the same compound, in the data set with broiler chickens (VevoVitall alone at 500 mg/kg), the “Improvement in weight gain compared to the control” value is reported as 3%.
